Assay results reported in patent publication US6414007B1, “Oxiranyl-triazoline thiones and their use as microbicides” (Bayer Aktiengesellschaft, priority 1997, dated 2002).

Legend:
[1] = system: Erysiphe graminis f.sp. hordei; assay: Erysiphe test (barley)/protective; assay type: in vivo; conditions: protective, application rate 125 g/ha, evaluation 7 days after inoculation
Experimental: (§1) Erysiphe test (barley)/protective Solvent: 25 parts by weight of N,N-dimethylacetamide Emulsifier: 0.6 parts by weight of alkylaryl polyglycol ether To produce a suitable preparation of active compound, 1 part by weight of active compound is mixed with the stated amounts of solvent and emulsifier, and the concentrate is diluted with water to the desired concentration. To test for protective activity, young plants are sprayed with the preparation of active compound at the stated application rate. After the spray coating has dried on, the plants are dusted with spores of Erysiphe graminis f.sp. hordei. The plants are placed in a greenhouse at a temperature of approximately 20° C. and a relative atmospheric humidity of approximately 80% to promote the development of mildew pustules. Evaluation is carried out 7 days after the inoculation. 0% means an efficacy which corresponds to that of the control, whereas an efficacy of 100% means that no infections are observed.

[2] = system: Puccinia recondita; assay: Puccinia test (wheat)/curative; assay type: in vivo; conditions: curative, application rate 125 g/ha, evaluation 10 days after inoculation
Experimental: Puccinia test (wheat)/curative Solvent: 25 parts by weight of N,N-dimethylacetamide Emulsifier: 0.6 parts by weight of alkylaryl polyglycol ether To produce a suitable preparation of active compound, 1 part by weight of active compound is mixed with the stated amounts of solvent and emulsifier, and the concentrate is diluted with water to the desired concentration. To test for curative activity, young plants are sprayed with a Conidia suspension of Puccinia recondita. The plants remain in an incubation cabin at 20° C. and 100% relative atmospheric humidity for 48 hours. The plants are then sprayed with the preparation of active compound at the stated application rate. The plants are placed in a greenhouse at a temperature of approximately 20° C. and a relative atmospheric humidity of approximately 80% to promote the development of rust pustules. Evaluation is carried out 10 days after the inoculation. 0% means an efficacy which corresponds to that of the control, whereas an efficacy of 100% means that no infections are observed.

[3] = system: Puccinia recondita; assay: Puccinia test (wheat)/protective; assay type: in vivo; conditions: protective, application rate 125 g/ha, evaluation 10 days after inoculation
Experimental: Puccinia test (wheat)/protective Solvent: 25 parts by weight of N,N-dimethylacetamide Emulsifier: 0.6 parts by weight of alkylaryl polyglycol ether To produce a suitable preparation of active compound, 1 part by weight of active compound is mixed with the stated amounts of solvent and emulsifier, and the concentrate is diluted with water to the desired concentration. To test for protective activity, young plants are sprayed with the preparation of active compound at the stated application rate. After the spray coating has dried on, the plants are sprayed with a […] of Puccinia recondita. The plants remain in an incubation cabin at 20° C. and 100% relative atmospheric humidity for 48 hours. The plants are placed in a greenhouse at a temperature of approximately 20° C. and a relative atmospheric humidity of approximately 80% to promote the development of rust pustules. Evaluation is carried out 10 days after the inoculation. 0% means an efficacy which corresponds to that of the control, whereas an efficacy of 100% means that no infections are observed.

[4] = system: Podosphaera leucotricha; assay: Podosphaera test (apple)/protective; assay type: in vivo; conditions: protective, evaluation 10 days after inoculation
Experimental: Podosphaera test (apple)/protective Solvent: 47 parts by weight of acetone Emulsifier: 3 parts by weight of alkylaryl polyglycol ether To produce a suitable preparation of active compound, 1 part by weight of active compound is mixed with the stated amounts of solvent and emulsifier, and the concentrate is diluted with water to the desired concentration. To test for protective activity, young plants are sprayed with the preparation of active compound at the stated application rate. After the spray coating has dried on, the plants are inoculated with an aqueous spore suspension of the causative organism of apple mildew Podosphaera leucotricha. The plants are then placed in a greenhouse at approximately 23° C. and a relative atmospheric humidity of approximately 70%. Evaluation was carried out 10 days after the inoculation. 0% means an efficacy which corresponds to that of the control, whereas an efficacy of 100% means that no infections are observed.

[5] = system: Erysiphe graminis f.sp. hordei; assay: Erysiphe test (barley)/curative; assay type: in vivo; conditions: curative (sprayed 48 hours after inoculation), application rate 250 g/ha, evaluation 7 days after inoculation
Experimental: as §1, with “(barley)/curative” for “(barley)/protective”, “curative” for “protective”, “young plants are dusted with spores of Erysiphe graminis f.sp. hordei. 48 hours after the inoculation, the” for “young”, “rate.” for “rate. After the spray coating has dried on, the plants are dusted with spores of Erysiphe graminis f.sp. hordei.”

[6] = system: Erysiphe graminis f.sp. tritici; assay: Erysiphe test (wheat)/protective; assay type: in vivo; conditions: protective, application rate 250 g/ha, evaluation 7 days after inoculation
Experimental: as §1, with “(wheat)/protective” for “(barley)/protective”, “tritici.” for “hordei.”

[7] = system: Leptosphaeria nodorum; assay: Leptosphaeria nodorum test (wheat)/protective; assay type: in vivo; conditions: protective, application rate 250 g/ha, evaluation 10 days after inoculation
Experimental: Leptosphaeria nodorum test (wheat)/protective Solvent: 25 parts by weight of N,N-dimethylacetamide Emulsifier: 0.6 parts by weight of alkylaryl polyglycol ether To produce a suitable preparation of active compound, 1 part by weight of active compound is mixed with the stated amounts of solvent and emulsifier, and the concentrate is diluted with water to the desired concentration. To test for protective activity, young plants are sprayed with the preparation of active compound at the stated application rate. After the spray coating has dried on, the plants are dusted with a spore suspension of Leptosphaeria nodorum. The plants remain in an incubation cabin at 20° C. and 100% relative atmospheric humidity for 48 hours. The plants are placed in a greenhouse at a temperature of approximately 15° C. and a relative atmospheric humidity of 80%. Evaluation is carried out 10 days after the inoculation. 0% means an efficacy which corresponds to that of the control, whereas an efficacy of 100% means that no infections are observed.

[8] = system: Coriolus versicolor; assay: Inhibition test on giant colonies of Basidiomycetes; assay type: cell-based; conditions: Trametes versicolor; 6 ppm of active compound, malt extract peptone agar, 26° C., evaluation after 3 or 7 days; read-out: Inhibition in per cent of radial growth of giant colonies
Experimental: Inhibition test on giant colonies of Basidiomycetes Solvent: Dimethylsulphoxide To produce a suitable preparation of active compound, 0.2 parts by weight of active compound are admixed to 99.8 parts by weight of the abovementioned solvent. An agar, prepared by using malt extract peptone, is mixed in a liquid state with the preparation of active compound at the particular desired application rate. After solidification, the resultant nutrient medium is incubated at 26° C. with mycelium pieces punched out of colonies of Coriolus versicolor. Evaluation is carried out after 3 or 7 days' storage at 26° C. by measuring the growth of the mycelium and scoring the resulting inhibition in percent in comparison to the untreated control. 0% means an inhibition of growth which corresponds to that of the untreated control, while an inhibition of growth of 100% means that no growth of mycelium is observed.

| melting point | SMILES | Efficacy in % [1] | Efficacy in % [2] | Efficacy in % [3] | Efficacy in % ([4]; application rate 1 g/ha) | Efficacy in % ([4]; application rate 10 g/ha) | Efficacy in % [5] | Efficacy in % [6] | Efficacy in % [7] | inhibition at 6 ppm [8] |
| --- | --- | --- | --- | --- | --- | --- | --- | --- | --- | --- |
| 105 to 107 °C | COCCNC(=O)n1cnn(CC2(c3ccc(F)cc3)OC2c2ccccc2Cl)c1=S (stereo not drawn) [Example 2] | 100% | 100% | 100% | 88% | 100% |  |  |  |  |
|  | CCOCCCNC(=O)n1cnn(CC2(c3ccc(F)cc3)OC2c2ccccc2Cl)c1=S (stereo not drawn) [Example 1] | 100% | 100% | 100% | 65% | 100% | 100% | 100% | 100% | 100% |
| 104 to 106 °C | CC(C)NC(=O)n1cnn(CC2(c3ccc(F)cc3)OC2c2ccccc2Cl)c1=S (stereo not drawn) [Example 3] | 100% | 100% |  | 80% | 100% |  | 100% |  | 100% |
|  | Fc1ccc(C2(Cn3nc[nH]c3=S)OC2c2ccccc2Cl)cc1 (stereo not drawn) [A, 3-(2-chloro-phenyl)-2-(4-fluoro-phenyl)-2-[(4,5-dihydro-5-thiono-1,2,4-triazol-1-yl)-methyl]-oxirane, reference compound] |  |  |  | 57% | 92% |  |  |  |  |
